Experimental data published in patent US7423026B2, “Methylated cyclodextrin complexes” (PediPharm Oy, priority 2002, dated 2008).

Columns and labels:
[1] = Aqueous phase-solubility study of cannabinoids with HP-β-CD; type: physicochemical; details: calculated from Ap-type phase-solubility diagram
Text: (§1) AU the phase-solubility diagrams (cannabinoid concentration as a function of CD concentration) are Ap-type (Higuchi and Connors 1965) and calculated complexation constants for 1:1 and 1:2 inclusion complexes has been shown in Table 1.

[2] = Dissolution studies of CBD formulations in 2% RM-β-CD dissolution media (pH 6.6); type: physicochemical; details: gelatine capsule, 1.0 mg pure CBD and 99 mg lactose, without RM-β-CD, 2% RM-β-CD media
[3] = Aqueous phase-solubility study of cannabinoids with RM-β-CD; type: physicochemical; details: for complexation constant for 1:1 inclusion complex, K1:1 / complexation constant for 1:2 inclusion complex, K1:2: with RM-β-CD, calculated from Ap-type phase-solubility diagram
Text: as §1

[4] = 40% solution of HP-β-CD; cited from earlier work
[5] = oral administration, depending on the drug vehicle; cited from earlier work
[6] = Dissolution studies of THC formulations in 2% RM-β-CD dissolution media (pH 6.6); type: physicochemical; details: gelatine capsule, 1.0 mg pure THC and 99 mg lactose, without RM-β-CD, 2% RM-β-CD media
[7] = Aqueous solubility of THC in HP-β-CD solution (Jarho et al.); type: physicochemical; details: calculated from Jarho et al.
Protocol: Compared to earlier findings, methylated β-CD improves the aqueous solubility of cannabinoids more efficiently, imparting promising dissolution properties for cannabinoids. […] However, the complexation of cannabinoids with methylated β-CD is more efficient compared to HP-β-CD.
As discussed above, the bioavailability of THC is 6-20% after oral administration. THC is commercially available as a capsule containing 5-10 mg of THC (Marinol). […] Thus, it can be calculated that 2 g of HP-β-CD is needed to establish a dosage form containing 5 mg of complexed THC. This is an amount that is too much for tablet formulations. According to the invention it has now been shown that the same amount of THC can be complexed with 200 mg of RM-β-CD.

C=C(C)[C@@H]1CCC(C)=C[C@H]1c1c(O)cc(CCCCC)cc1O [CBD, cannabidiol]
complexation constant for 1:1 inclusion complex, K1:1 [1]: 13 844 M^−1 | complexation constant for 1:2 inclusion complex, K1:2 [1]: 62 M⁻¹ | time until CBD is fully dissolved [2]: 3 h | complexation constant for 1:1 inclusion complex, K1:1 [3]: 484 145 M^−1 | complexation constant for 1:2 inclusion complex, K1:2 [3]: 8 M⁻¹

CCCCCc1cc(O)c2c(c1)OC(C)(C)[C@@H]1CCC(C)=C[C@@H]21 [THC, Δ^9-tetrahydrocannabinol]
concentration of THC solution obtained [4]: 1000 µg/mL | complexation constant for 1:1 inclusion complex, K1:1 [1]: 4 222 M^−1 | complexation constant for 1:2 inclusion complex, K1:2 [1]: 58 M⁻¹ | amount of RM-β-CD to prepare the same formulation (1 mg of THC) ([3]; 1 mg of THC): 25.7 mg | amount of RM-β-CD that complexes 5 mg of THC ([3]; same amount of THC (5 mg)): 200 mg | complexation constant for 1:1 inclusion complex, K1:1 [3]: 19 563 M^−1 | complexation constant for 1:2 inclusion complex, K1:2 [3]: 38 M⁻¹ | bioavailability [5]: 6-20% | time until THC is fully dissolved [6]: 1 h | amount of HP-β-CD needed for a dosage form containing 5 mg of complexed THC [7]: 2 g | amount of HP-β-CD needed to complex 1 mg of THC [7]: 400 mg
